# Target: trimeric construct of the SARS-CoV-2 S2 segment (Severe acute respiratory syndrome coronavirus 2, UniProt P0DTC2, A892P/A899P/A942P/F817P/K986P/V987P)
# Assay type: binding
substance,measurement,value
Ivermectin,binding to S2,did not show any binding

# Source: paper PMC11054727 (Viruses, 2024)
